Laboratory results from patent US20260356851A1, “TRICYCLIC COMPOUNDS AND USES THEREOF” (HUTCHMED LIMITED, priority 2023, published 2026).
Blank lines part the entries; values can stand above or below the compound they belong to.

What was measured:
Type in all cases: cell-based
[1] = molecular target: T1, pERK1/2 (Thr202/Tyr204), NCI-1H441 (KRAS G12V) (Homo sapiens, UniProt P01116, G12V); assay: Assay of intracellular pERK1/2 (Thr202/Tyr204) phosphorylation in NCI-H441 cells (KRAS G12V); settings: pERK1/2, 2 days, read-out: NCI-H441 (KRAS G12V) IC50
T1 construct: pERK1/2 HTRF read-out
Description: (§1) Example 2: Assay of intracellular pERK1/2 (Thr202/Tyr204)phosphorylation
(§2) 1. Reagents and materials: • pERK1/2 (Thr202/Tyr2O4) HIRE kit, Cisbio, Cat #64ERKPEH; • OptiPlate™-384-well plate, PerkinElmer, Cat #6007299; • 96-well plate, Coming, Cat #353072; • Instrument: EnVision2104, PerkinElmer; • Cell lines: NCI-1H358 (KRAS G12C), ATCC, CRL-5807; PANC-1 (KRAS G121D), ATCC, CRL-1469; NCI-1H441 (KRAS G12V), ATCC, HTB-174.
(§3) 2. Preparation of Reaction Solutions
(§4) • A test compound was dissolved in DMSO, diluted to 200.0 μM and further diluted 3-fold to prepare a series of test compounds at concentrations of 66.7, 22.2, 7.4, 2.5, 0.82, 0.27, 0.09 μM etc. Then 10 μL of the compound at different dilution concentrations was added to 190 μL of a DMEM medium to prepare a 10× test compound; • 1× cell lysis buffer: 4× cell lysis stock solution (provided by the kit) was diluted 4-fold with deionized water, and then 10% 100× blocking stock solution (provided by the kit) was added thereto. • pERK1/2 detection solution (prepared just before use): the pERK1/2 d2 antibody (provided by the kit) and pERK1/2 Cryptate antibody (provided by the kit) were diluted with the detection solution (provided by the kit) at a ratio of 1:1:38.
(§5) • Cells were inoculated into a 96-well plate (100 μL/well) at a density of 10000-12000/well. No cell was inoculated into a negative control well, and only the cell medium was added at 100 μL/well. The plate was placed in a cell incubator at 5% CO2 and 37° C. overnight. • 10 μL of the 10× test compound was added to the 100 μL cell culture 96-well plate; both the positive control well (that is, the control hole without chemical compound treatment) and the negative control well were charged with 10 μL of a 5% DMSO culture solution; and the plate was cultured in a cell incubator at 5% CO2 and 37° C. for 2 days. • The medium in the 96-well plate was removed; 50 μL of the 1× cell lysis buffer was added to each of the wells; the plate was placed in a microplate shaker; and lysis under shaking was carried out at 900 rpm at room temperature for 1 hour. • 16 μL of the lysis buffer in the 96-well plate was taken and transferred to a 384-well plate, followed by centrifugation at 1000 rpm for 30 s; then 4 μL of pERK1/2 detection solution was added to each well, followed by centrifugation at 1000 rpm for 30 s; and the 384-well plate was sealed with a sealing membrane and incubated at 25° C. on a low-speed shaker at 100 rpm in the dark for 2 hours. • The fluorescence value (RFU) of each well was detected on EnVision2104, with an emission wavelength 1 being 665 nm and an emission wavelength 2 being 615 nm.
(§6) Fluorescence ratio=fluorescence value665 nm/fluorescence value615 nm
(§7) Inhibition rate (%)=100−((fluorescence ratio of compound well−fluorescence ratio of negative control well)/(fluorescence ratio of positive control well−fluorescence ratio of negative control well))×100
(§8) wherein: • the fluorescence ratio of compound well refers to the fluorescence ratio of the well containing the test compounds; • the fluorescence ratio of negative control well refers to the fluorescence ratio of the cell-free control well; • the fluorescence ratio of positive control well refers to the fluorescence ratio of the cell well treated with 0.5% DMSO.
(§9) IC50 value: obtained by calculation using XL-Fit 5.0 software.

[2] = molecular target: T2, pERK1/2 (Thr202/Tyr204), NCI-1H358 (KRAS G12C) (Homo sapiens, UniProt P01116, G12C); assay: Assay of intracellular pERK1/2 (Thr202/Tyr204) phosphorylation in NCI-H358 cells (KRAS G12C); settings: pERK1/2, 2 days, read-out: NCI-H358 (KRAS G12C) IC50
T2 construct: pERK1/2 HTRF read-out
Description: as §1, §2, §3, §4, §5, §6, §7, §8, §9

[3] = molecular target: T3, pERK1/2 (Thr202/Tyr204), PANC-1 (KRAS G121D) (Homo sapiens, UniProt P01116, G12D); assay: Assay of intracellular pERK1/2 (Thr202/Tyr204) phosphorylation in PANC-1 cells (KRAS G12D); settings: pERK1/2, 2 days, read-out: PANC-1 (KRAS G12D) IC50
T3 construct: pERK1/2 HTRF read-out
Description: as §1, §2, §3, §4, §5, §6, §7, §8, §9

T3 sequence (P01116 1-188 isoform P01116-2 G12D): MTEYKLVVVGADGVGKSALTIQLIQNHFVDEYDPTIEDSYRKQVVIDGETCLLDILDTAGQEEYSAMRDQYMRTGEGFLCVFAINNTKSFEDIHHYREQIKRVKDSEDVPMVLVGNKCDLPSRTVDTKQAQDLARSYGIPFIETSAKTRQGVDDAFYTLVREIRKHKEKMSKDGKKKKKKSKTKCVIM
T1 sequence (P01116 1-188 isoform P01116-2 G12V): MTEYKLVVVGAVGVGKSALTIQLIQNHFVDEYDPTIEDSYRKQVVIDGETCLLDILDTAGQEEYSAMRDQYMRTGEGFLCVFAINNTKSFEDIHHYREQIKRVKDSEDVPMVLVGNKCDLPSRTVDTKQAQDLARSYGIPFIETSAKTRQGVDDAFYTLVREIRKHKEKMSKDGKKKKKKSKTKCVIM
T2 sequence (P01116 1-188 isoform P01116-2 G12C): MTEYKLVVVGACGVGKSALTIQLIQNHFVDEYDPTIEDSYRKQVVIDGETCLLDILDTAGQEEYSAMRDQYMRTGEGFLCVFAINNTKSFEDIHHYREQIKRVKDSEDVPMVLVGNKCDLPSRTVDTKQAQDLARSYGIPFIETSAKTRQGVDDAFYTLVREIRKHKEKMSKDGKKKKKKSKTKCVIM

Compound: CC(c1cccnc1N)N1CCOc2nc(-c3cc(O)cc(F)c3C3CC3)c(F)c3nc(OC[C@@H]4CCCN4C)nc1c23 (single isomer, unassigned) [Compound 35, 3-(10-((R or S)-1-(2-aminopyridin-3-yl)ethyl)-4-fluoro-2-(((S)-1-methylpyrrolidin-2-yl)methoxy)-9,10-dihydro-8H-7-oxa-1,3,6,10-tetraazacyclohepta[de]naphthalen-5-yl)-4-cyclopropyl-5-fluorophenol]
IC50 [1]: 37 nM | IC50 [2]: 18 nM | IC50 [3]: 399 nM

Compound: C[C@H](c1cccnc1N)N1CCOc2nc(-c3c(C(F)(F)F)ccc4[nH]ncc34)c(F)c3nc(OC[C@@H]4CCN4CC(F)F)nc1c23 (single isomer, unassigned) [Compound 38, 3-((1R or 1S)-1-(2-(((S)-1-(2,2-difluoroethyl)azetidin-2-yl)methoxy)-4-fluoro-5-(5-(trifluoromethyl)-1H-indazol-4-yl)-8,9-dihydro-10H-7-oxa-1,3,6,10-tetraazacyclohepta[de]naphthalen-10-yl)ethyl)pyridin-2-amine]
IC50 [1]: 643 nM | IC50 [2]: 595 nM | IC50 [3]: > 1000 nM

Compound: C[C@@H](c1cccnc1N)N1CCOc2nc(-c3c(C(F)(F)F)ccc4[nH]ncc34)c(F)c3nc(OC[C@@H]4CCN4CC(F)F)nc1c23 (single isomer, unassigned) [Compound 39, 3-((1R or 1S)-1-(2-(((S)-1-(2,2-difluoroethyl)azetidin-2-yl)methoxy)-4-fluoro-5-(5-(trifluoromethyl)-1H-indazol-4-yl)-8,9-dihydro-10H-7-oxa-1,3,6,10-tetraazacyclohepta[de]naphthalen-10-yl)ethyl)pyridin-2-amine]
IC50 [1]: 7 nM | IC50 [2]: 2 nM | IC50 [3]: 237 nM

Compound: CC(c1cccnc1N)N1CCOc2nc(-c3cc(O)cc4ccc(F)c(F)c34)c(F)c3nc(OC[C@@H]4CC(F)(F)CN4C)nc1c23 (single isomer, unassigned) [Compound 51, 4-(10-((R or S)-1-(2-aminopyridin-3-yl)ethyl)-2-(((S)-4,4-difluoro-1-methylpyrrolidin-2-yl)methoxy)-4-fluoro-9,10-dihydro-8H-7-oxa-1,3,6,10-tetraazacyclohepta[de]naphthalen-5-yl)-5,6-difluoronaphthalen-2-ol]
IC50 [1]: 5 nM | IC50 [2]: 2 nM | IC50 [3]: 100 nM

Compound: CC(c1cccnc1N)N1CCOc2nc(-c3cc(N)ccc3C(F)(F)F)c(F)c3nc(OC[C@@]45CCCN4C[C@H](F)C5)nc1c23 (single isomer, unassigned) [Compound 53, 3-((R or S)-1-(5-(5-amino-2-(trifluoromethyl)phenyl)-4-fluoro-2-(((2R,7aS)-2-fluorotetrahydro-1H-pyrrolizin-7a(5H)-yl)methoxy)-8,9-dihydro-10H-7-oxa-1,3,6,10-tetraazacyclohepta[de]naphthalen-10-yl)ethyl)pyridin-2-amine]
IC50 [1]: 191 nM | IC50 [2]: 88 nM | IC50 [3]: > 1000 nM

Other lines, results leading:

IC50 [1]: 820 nM | IC50 [2]: 223 nM | IC50 [3]: > 1000 nM
Compound: CC(c1cccnc1N)N1CCOc2nc(-c3cc(O)cc4ccc(F)c(F)c34)c(F)c3nc(OC[C@@H]4CCCN4C)nc1c23 (single isomer, unassigned) [Compound 41, 4-(10-((R or S)-1-(2-aminopyridin-3-yl)ethyl)-4-fluoro-2-(((S)-1-methylpyrrolidin-2-yl)methoxy)-9,10-dihydro-8H-7-oxa-1,3,6,10-tetraazacyclohepta[de]naphthalen-5-yl)-5,6-difluoronaphthalen-2-ol]

IC50 [1]: 5 nM | IC50 [2]: 0.9 nM | IC50 [3]: 69 nM
Compound: CC(c1cccnc1N)N1CCOc2nc(-c3cc(O)cc4ccc(F)c(F)c34)c(F)c3nc(OC[C@@H]4CCCN4C)nc1c23 (single isomer, unassigned) [Compound 42, 4-(10-((R or S)-1-(2-aminopyridin-3-yl)ethyl)-4-fluoro-2-(((S)-1-methylpyrrolidin-2-yl)methoxy)-9,10-dihydro-8H-7-oxa-1,3,6,10-tetraazacyclohepta[de]naphthalen-5-yl)-5,6-difluoronaphthalen-2-ol]

IC50 [1]: > 1000 nM | IC50 [2]: > 1000 nM | IC50 [3]: > 1000 nM
Compound: CC(c1cccnc1N)N1CCOc2nc(-c3cc(O)cc(Cl)c3C3CC3)c(F)c3nc(OC[C@@]45CCCN4C[C@H](F)C5)nc1c23 (single isomer, unassigned) [Compound 43, 3-(10-((R or S)-1-(2-aminopyridin-3-yl)ethyl)-4-fluoro-2-(((2R,7aS)-2-fluorotetrahydro-1H-pyrrolizin-7a(5H)-yl)methoxy)-9,10-dihydro-8H-7-oxa-1,3,6,10-tetraazacyclohepta[de]naphthalen-5-yl)-5-chloro-4-cyclopropylphenol]

IC50 [1]: 0.6 nM | IC50 [2]: 0.1 nM | IC50 [3]: 3 nM
Compound: CC(c1cccnc1N)N1CCOc2nc(-c3cc(O)cc(Cl)c3C3CC3)c(F)c3nc(OC[C@@]45CCCN4C[C@H](F)C5)nc1c23 (single isomer, unassigned) [Compound 44, 3-(10-((R or S)-1-(2-aminopyridin-3-yl)ethyl)-4-fluoro-2-(((2R,7aS)-2-fluorotetrahydro-1H-pyrrolizin-7a(5H)-yl)methoxy)-9,10-dihydro-8H-7-oxa-1,3,6,10-tetraazacyclohepta[de]naphthalen-5-yl)-5-chloro-4-cyclopropylphenol]

IC50 [1]: > 1000 nM | IC50 [2]: > 1000 nM | IC50 [3]: > 1000 nM
Compound: CC(c1cccnc1N)N1CCOc2nc(-c3cc(O)cc(F)c3C3CC3)c(F)c3nc(OC[C@@H]4CC(F)(F)CN4C)nc1c23 (single isomer, unassigned) [Compound 48, 3-(10-((R or S)-1-(2-aminopyridin-3-yl)ethyl)-2-(((S)-4,4-difluoro-1-methylpyrrolidin-2-yl)methoxy)-4-fluoro-9,10-dihydro-8H-7-oxa-1,3,6,10-tetraazacyclohepta[de]naphthalen-5-yl)-4-cyclopropyl-5-fluorophenol]

IC50 [1]: 22 nM | IC50 [2]: 15 nM | IC50 [3]: 557 nM
Compound: CC(c1cccnc1N)N1CCOc2nc(-c3cc(O)cc(F)c3C3CC3)c(F)c3nc(OC[C@@H]4CC(F)(F)CN4C)nc1c23 (single isomer, unassigned) [Compound 49, 3-(10-((R or S)-1-(2-aminopyridin-3-yl)ethyl)-2-(((S)-4,4-difluoro-1-methylpyrrolidin-2-yl)methoxy)-4-fluoro-9,10-dihydro-8H-7-oxa-1,3,6,10-tetraacyclohepta[de]naphthalen-5-yl)-4-cyclopropyl-5-fluorophenol]

IC50 [1]: > 1000 nM | IC50 [2]: 916 nM | IC50 [3]: > 1000 nM
Compound: CC(c1cccnc1N)N1CCOc2nc(-c3cc(O)cc4ccc(F)c(F)c34)c(F)c3nc(OC[C@@H]4CC(F)(F)CN4C)nc1c23 (single isomer, unassigned) [Compound 50, 4-(10-((R or S)-1-(2-aminopyridin-3-yl)ethyl)-2-(((S)-4,4-difluoro-1-methylpyrrolidin-2-yl)methoxy)-4-fluoro-9,10-dihydro-8H-7-oxa-1,3,6,10-tetraazacyclohepta[de]naphthalen-5-yl)-5,6-difluoronaphthalen-2-ol]
